Assay results: patent publication US10130631B2, “CML therapeutic agents with reduced drug-resistance and side-effect comprising 1,6-disubstituted indole compounds” (KOREA INSTITUTE OF SCIENCE AND TECHNOLOGY, priority 2016, dated 2018)

Columns and labels:
Assay type in all cases: cell-based
Parental Ba/F3 = experiment: Proliferation inhibitory activity, parental Ba/F3; conditions: Mus musculus, BaF3; parental Ba/F3 cell line
Protocol: (§1) The GI50 value was calculated by measuring the inhibitory effect on the proliferation of the compounds of the present invention in parental Ba/F3, wt-Bcr-Abl Ba/F3, T315I-Bcr-Abl Ba/F3 and VEGFR2 Ba/F3 cell lines.

wt-Bcr-Abl Ba/F3 = experiment: Proliferation inhibitory activity, wt-Bcr-Abl Ba/F3; conditions: for GI50: Mus musculus, BaF3, wt-Bcr-Abl Ba/F3 cell line; for inhibitory activity against wt-Bcr-Abl (in words): summary of Table 1
Protocol: as §1

T315I-Bcr-Abl Ba/F3 = experiment: Proliferation inhibitory activity, T315I-Bcr-Abl Ba/F3; conditions: for GI50: Mus musculus, BaF3, T315I-Bcr-Abl Ba/F3 cell line; for inhibitory activity against T315I-Bcr-Abl (in words): summary of Table 1
Protocol: as §1

VEGFR2 Ba/F3 = experiment: Proliferation inhibitory activity, VEGFR2 Ba/F3; conditions: for GI50: Mus musculus, BaF3, VEGFR2 Ba/F3 cell line; for inhibitory activity against VEGFR2 kinase (in words): summary of Table 1
Protocol: as §1

Row | SMILES | GI50 (wt-Bcr-Abl Ba/F3) | GI50 (T315I-Bcr-Abl Ba/F3) | GI50 (VEGFR2 Ba/F3) | GI50 (Parental Ba/F3) | inhibitory activity against wt-Bcr-Abl (in words) (wt-Bcr-Abl Ba/F3) | inhibitory activity against T315I-Bcr-Abl (in words) (T315I-Bcr-Abl Ba/F3) | inhibitory activity against VEGFR2 kinase (in words) (VEGFR2 Ba/F3)
1 | Cc1ccc(NC(=O)c2ccc(CN3CCN(C)CC3)c(C(F)(F)F)c2)cc1-c1ccc2ccn(-c3ncnc4[nH]ccc34)c2c1 [Compound No. 16, N-(3-(1-(7H-pyrrolo[2,3-d]pyrimidine-4-yl)-1H-indole-6-yl)-4-methylphenyl)-4-((4-methylpiperazine-1-yl)methyl)-3-(trifluoromethyl)benzamide] | < 300 nM | < 300 nM | 300 to 3000 nM | 300 to 3000 nM | – | – | –
2 | COc1ccccc1NC(=O)Nc1cccc(-c2ccc3ccn(-c4ncnc5[nH]ccc45)c3c2)c1 [Compound No. 10, 1-(3-(1-(7H-pyrrolo[2,3-d]pyrimidine-4-yl)-1H-indole-6-yl)phenyl)-3-(2-methoxyphenyl)urea] | > 3000 nM | > 3000 nM | > 3000 nM | > 3000 nM | – | – | –
3 | Cc1cn(-c2cc(C(=O)Nc3ccc(C)c(-c4ccc5ccn(-c6ncnc7[nH]ccc67)c5c4)c3)cc(C(F)(F)F)c2)cn1 [Compound No. 11] | < 300 nM | < 300 nM | > 3000 nM | 300 to 3000 nM | have a wt-Bcr-Abl inhibitory activity | strong inhibitory activity | does not exhibit any inhibitory activity
4 | Cc1ccc(NC(=O)c2ccc(N3CCN(C)CC3)c(C(F)(F)F)c2)cc1-c1ccc2ccn(-c3cc(N)ncn3)c2c1 [Compound No. 5] | 300 to 3000 nM | < 300 nM | > 3000 nM | 300 to 3000 nM | have a wt-Bcr-Abl inhibitory activity | strong inhibitory activity | does not exhibit any inhibitory activity
5 | COc1ccccc1NC(=O)Nc1ccc(C)c(-c2ccc3ccn(-c4cc(N)ncn4)c3c2)c1 [Compound No. 9, 1-(3-(1-(6-aminopyrimidine-4-yl)-1H-indole-6-yl)-4-methylphenyl)-3-(2-methoxyphenyl) urea] | > 3000 nM | > 3000 nM | > 3000 nM | > 3000 nM | – | – | –
6 | Cc1ccc(NC(=O)c2ccc(N3CCN(C)CC3)c(C(F)(F)F)c2)cc1-c1ccc2ccn(-c3ncnc4[nH]ccc34)c2c1 [Compound No. 15, N-(3-(1-(7H-pyrrolo[2,3-d]pyrimidine-4-yl)-1H-indole-6-yl)-4-methylphenyl)-4-(4-methylpiperazine-1-yl)-5-(trifluoromethyl)benzamide] | 300 to 3000 nM | < 300 nM | 300 to 3000 nM | 300 to 3000 nM | – | – | –

Further lines, with some results ahead:

Row | GI50 (wt-Bcr-Abl Ba/F3) | GI50 (T315I-Bcr-Abl Ba/F3) | GI50 (VEGFR2 Ba/F3) | SMILES | GI50 (Parental Ba/F3) | inhibitory activity against wt-Bcr-Abl (in words) (wt-Bcr-Abl Ba/F3) | inhibitory activity against T315I-Bcr-Abl (in words) (T315I-Bcr-Abl Ba/F3) | inhibitory activity against VEGFR2 kinase (in words) (VEGFR2 Ba/F3)
7 | > 3000 nM | < 300 nM | > 3000 nM | Cc1ccc(NC(=O)c2cc(N3CCOCC3)cc(C(F)(F)F)c2)cc1-c1ccc2ccn(-c3cc(N)ncn3)c2c1 [Compound No. 3] | > 3000 nM | – | – | –
8 | > 3000 nM | < 300 nM | > 3000 nM | Cc1ccc(NC(=O)c2cc(N3CCC(O)CC3)cc(C(F)(F)F)c2)cc1-c1ccc2ccn(-c3cc(N)ncn3)c2c1 [Compound No. 2] | > 3000 nM | – | – | –
9 | 300 to 3000 nM | < 300 nM | > 3000 nM | Cc1cn(-c2cc(C(=O)Nc3ccc(C)c(-c4ccc5ccn(-c6cc(N)ncn6)c5c4)c3)cc(C(F)(F)F)c2)cn1 [Compound No. 1] | 300 to 3000 nM | have a wt-Bcr-Abl inhibitory activity | strong inhibitory activity | does not exhibit any inhibitory activity
10 | > 3000 nM | 300 to 3000 nM | > 3000 nM | Cc1ccc(NC(=O)c2cc(N3CCC(O)CC3)cc(C(F)(F)F)c2)cc1-c1ccc2ccn(-c3ncnc4[nH]ccc34)c2c1 [Compound No. 12, N-(3-(1-(7H-pyrrolo[2,3-d]pyrimidine-4-yl)-1H-indole-6-yl)-4-methylphenyl)-3-(4-hydroxypiperidine-1-yl)-5-(trifluoromethyl)benzamide] | > 3000 nM | – | – | –
11 | > 3000 nM | 300 to 3000 nM | > 3000 nM | Cc1cn(-c2cc(C(=O)Nc3cccc(-c4ccc5ccn(-c6cc(N)ncn6)c5c4)c3)cc(C(F)(F)F)c2)cn1 [Compound No. 7, N-(3-(1-(6-aminopyrimidine-4-yl)-1H-indole-6-yl)phenyl)-3-(4-methyl-1H-imidazole-1-yl)-5-(trifluoromethyl)benzamide] | > 3000 nM | – | – | –
12 | > 3000 nM | > 3000 nM | > 3000 nM | Nc1cc(-n2ccc3ccc(-c4cccc(NC(=O)c5cc(N6CCOCC6)cc(C(F)(F)F)c5)c4)cc32)ncn1 [Compound No. 8, N-(3-(1-(6-aminopyrimidine-4-yl)-1H-indole-6-yl)phenyl)-3-morpholino-5-(trifluoromethyl)benzamide] | > 3000 nM | – | – | –
13 | 300 to 3000 nM | < 300 nM | 300 to 3000 nM | Cc1ccc(NC(=O)c2cc(N3CCN(C)CC3)cc(C(F)(F)F)c2)cc1-c1ccc2ccn(-c3ncnc4[nH]ccc34)c2c1 [Compound No. 14, N-(3-(1-(7H-pyrrolo[2,3-d]pyrimidine-4-yl)-1H-indole-6-yl)-4-methylphenyl)-3-(4-methylpiperazine-1-yl)-5-(trifluoromethyl)benzamide] | 300 to 3000 nM | – | – | –
14 | 300 to 3000 nM | 300 to 3000 nM | > 3000 nM | Cc1ccc(NC(=O)c2cc(N3CCOCC3)cc(C(F)(F)F)c2)cc1-c1ccc2ccn(-c3ncnc4[nH]ccc34)c2c1 [Compound No. 13, N-(3-(1-(7H-pyrrolo[2,3-d]pyrimidine-4-yl)-1H-indole-6-yl)-4-methylphenyl)-3-morpholino-5-(trifluoromethyl)benzamide] | > 3000 nM | – | – | –
